Measured values: publication PMC6494957 (Frontiers in Microbiology, 2019)
In brackets after ≈: the same amount, converted by molar mass. Positions of bridges follow the written chain, without caps; N, C: chain ends. Non-standard residues stand in square brackets, D forms with d. Residues, ends and D or L forms follow the SMILES beside them. Dab = NCC[C@H](N)C(=O)O

Key:
P. aeruginosa ATCC 27853 = assay: microbe, parasite or virus in culture; conditions: for MIC: Pseudomonas aeruginosa, ATCC27853, read-out: MIC, single drug
Protocol: (§1) The MIC for ampicillin or gentamicin against each isolate was determined for each test to serve as an internal quality control. The MICs of isolates were determined by visual reading and using an EnSpire Multimode Plate Reader 2300 atA600nm.
(§2) Briefly, antimicrobial stock solutions for robenidine and PMBN were prepared at a concentration of 12.8 mg/ml in DMSO. […] A 1 μl aliquot of the first compound from each combination was dispensed along the abscissa (from row A to G) of the 96-well microplate, while the second compound was dispensed along the ordinate (from column 12 to column 3) using an electronic multichannel pipette followed by 89 μl of LB broth. Each well of the plate was inoculated with an aliquot of 10 μl bacterial suspension at a concentration of 1-5 × 10^6 colony forming units (CFU) per ml. Subsequently, the plate was incubated at 37°C for 24 h. The fractional inhibitory concentration index (FICI) described the results of the combinations, and was calculated utilizing the following formula:
(§3) DRI = MIC of drug alone/MIC of drug in combination

P. mirabilis ATCC 43071 = assay: microbe, parasite or virus in culture; conditions: ATCC 43071, 24 h
Protocol: as §1, §2, §3

[1] = tested on: A. calcoaceticus (human clinical isolate); assay: microbe, parasite or virus in culture
Protocol: as §1, §2, §3

E. coli ATCC 25922 = assay: microbe, parasite or virus in culture; conditions: for MIC: Escherichia coli, ATCC25922, read-out: MIC, single drug
Protocol: as §1, §2, §3

A. baumannii ATCC 12457 = assay: microbe, parasite or virus in culture
Protocol: as §1, §2, §3

K. pneumoniae ATCC 13883 = assay: microbe, parasite or virus in culture
Protocol: as §1, §2, §3

P. putida ATCC 17428 = assay: microbe, parasite or virus in culture
Protocol: as §1, §2, §3

A. baumannii ATCC 19606 = assay: microbe, parasite or virus in culture
Protocol: as §1, §2, §3

E. coli ATCC 11229 = assay: microbe, parasite or virus in culture
Protocol: as §1, §2, §3

[2] = tested on: Gram-negative control strains; assay: Checkerboard, summary over Gram-negative strains; format: cell-based; conditions: in combination with robenidine; for P. aeruginosa
Protocol: as §2, §3

[3] = tested on: all the cell lines tested (HaCaT, HEK 293, MDCK); assay: cells; conditions: 24 h
Protocol: Cells were maintained in Dulbecco’s modified Eagle’s medium (DMEM) with 10% fetal bovine serum (FBS) and 1% PenStrep (100 U/mL Penicillin and 100 μg/mL Streptomycin) at 37°C with 5% CO2. Cells were serially passaged at ∼80% confluence ∼ every 4 days. Assays were performed in duplicate in 96 well plates seeded with ∼25,000 cells per well. […] Briefly, the antimicrobials were prepared by performing a twofold serial dilution at 100× of tested concentration in DMSO. Subsequently, a 1 μl aliquot of each concentration was transferred to a sterile 96-well plate containing fresh DMEM with either 10% FBS. After mixing four times, the media aliquots with different concentrations of antimicrobial were transferred to each well of the 96-well plate seeded with cells, using wells containing 1–2% DMSO only as control. To determine the effect of FBS on the cytotoxicity of each compound, DMEM with 40% FBS containing different concentrations of antimicrobial was prepared as described above. After 24 h of exposure, WST-1 reagent (Cell Proliferation Assay reagent, Roche) at a concentration of 10% was added to each well. Absorbance at A450 nm on a Multiskan Ascent 354 Spectrophotometer (Labsystems) was measured after 1 h of incubation. The IC50 value was determined for each compound against each cell line via non-linear regression (three parameters) using GraphPad Prism v6 software.

[4] = tested on: P. aeruginosa (n = 30) clinical isolates from otitis externa cases in dogs; assay: MIC/MBC and checkerboard, canine otitis externa isolates; format: cell-based, Pseudomonas aeruginosa; conditions: canine otitis externa; for MIC50 / MIC90: Pseudomonas aeruginosa; for MIC50: read-out: MIC50, single drug; for MIC90: read-out: MIC90, single drug
Text: (§4) Escherichia coli ATCC 25922, E. coli ATCC 11229, P. aeruginosa ATCC 27853, P. aeruginosa PA01, Pseudomonas putida ATCC 17428, P. mirabilis ATCC 43071, K. pneumoniae ATCC 13883, A. baumannii ATCC 19606, and A. baumannii ATCC 12457 were used for preliminary susceptibility testing and combination experiments. S. aureus ATCC 29213 and S. pneumoniae ATCC 49619 were used as internal quality controls. A variety of bacterial organisms from both human and canine infections were investigated in this study (n = 119 isolates in total). Twenty-eight clinical Acinetobacter spp. isolates were obtained from cases of human skin and soft tissue infections, including 18 Acinetobacter baumannii and 10 A. calcoaceticus, kindly provided by a person (Institute of Medical and Veterinary Science, South Australia). […] Ninety-one clinical isolates were obtained from cases of canine otitis externa, including seven methicillin-susceptible S. pseudintermedius (MSSP), 13 multidrug- and methicillin-resistant S. pseudintermedius (MRSP) ([Saputra et al., 2017]), 20 beta-haemolytic Streptococcus spp., 30 P. aeruginosa (10 of them resistant to gentamicin and 21 P. mirabilis isolates). These isolates were obtained from the bacterial collection of the national survey of antimicrobial resistance in animals conducted in Australia. Swab samples from dogs with signs of otitis externa were collected by veterinarians and submitted to government, private or university diagnostic laboratories throughout Australia. After routine bacterial identification and the removal of confidential information, the participating veterinary diagnostic laboratories submitted the bacteria and their clinical information to PC2 Laboratories, Australian Centre for Antimicrobial Resistance Ecology, School of Animal and Veterinary Sciences, University of Adelaide, Roseworthy Campus, Roseworthy, SA, Australia, for further study. Thus, animal ethics approval was not required in this study. These organisms were identified to species level using biochemical testing and MALDI-TOF mass spectrometry (Bruker, Preston, VIC, Australia).
as §1
(§5) Briefly, 10 μl aliquots from each duplicate well from the MIC assays (starting from the MIC for each compound) were inoculated onto a sheep blood agar (SBA) plate and incubated at 37°C.
as §2, §3

[5] = tested on: S. pseudintermedius (n = 20) clinical isolates from otitis externa cases in dogs; assay: as above; format: cell-based, Staphylococcus pseudintermedius; conditions: canine otitis externa; for MIC50 / MIC90: Staphylococcus pseudintermedius; for MIC50: read-out: MIC50, single drug; for MIC90: read-out: MIC90, single drug
Text: as §4, §1, §5, §2, §3

[6] = tested on: Beta-haemolytic streptococci (n = 20) clinical isolates from otitis externa cases in dogs; assay: as above; format: cell-based, beta-haemolytic Streptococcus spp.; conditions: canine otitis externa; for MIC50 / MIC90: Streptococcus; for MIC50: read-out: MIC50, single drug; for MIC90: read-out: MIC90, single drug
Text: as §4, §1, §5, §2, §3

S. aureus ATCC 29213 = assay: MIC broth microdilution, quality control strain; format: cell-based; conditions: Staphylococcus aureus, ATCC29213; S. aureus ATCC 29213, quality control strain
Protocol: (§6) Luria Bertani (LB) broth (Oxoid, Australia) was applied for MIC testing in lieu of cation-adjusted Mueller–Hinton broth as robenidine has been previously shown to chelate calcium ions. Furthermore, a twofold serial dilution of robenidine was performed in 100% DMSO, with 1 μl dispensed to each well due to the hydrophobicity of the compound ([Abraham et al., 2016]). The MIC for ampicillin or gentamicin against each isolate was determined for each test to serve as an internal quality control. The MICs of isolates were determined by visual reading and using an EnSpire Multimode Plate Reader 2300 atA600nm.

[7] = tested on: P. mirabilis (n = 21) clinical isolates from otitis externa cases in dogs; assay: MIC/MBC and checkerboard, canine otitis externa isolates; format: cell-based, Proteus mirabilis; conditions: canine otitis externa; for MIC50 / MIC90: Proteus mirabilis; for MIC50: read-out: MIC50, single drug; for MIC90: read-out: MIC90, single drug
Text: as §4, §1, §5, §2, §3

S. pneumoniae ATCC 49619 = assay: MIC broth microdilution, quality control strain; format: cell-based; conditions: Streptococcus pneumoniae, ATCC49619; S. pneumoniae ATCC 49619, quality control strain
Protocol: as §6

MIC50 [4] [µg/mL] | MIC90 [4] [µg/mL] | MIC range, single drug [4] [µg/mL] | MIC50 [5] [µg/mL] | MIC90 [5] [µg/mL] | MIC range, single drug [5] [µg/mL] | MIC (P. aeruginosa ATCC 27853) [µg/mL] | MIC (E. coli ATCC 25922) [µg/mL] | MIC (S. aureus ATCC 29213) [µg/mL] | MIC50 [7] [µg/mL] | MIC90 [7] [µg/mL] | Structure (SMILES) | MIC50 [6] [µg/mL] | MIC90 [6] [µg/mL] | MIC range, single drug [6] [µg/mL] | also measured
 |  |  |  |  |  |  |  |  |  |  | CC(C)C[C@@H]1NC(=O)[C@@H](Cc2ccccc2)NC(=O)[C@H](CCN)NC(=O)[C@@H](NC(=O)[C@H](CCN)NC(=O)[C@@H](N)[C@@H](C)O)CCNC(=O)[C@H]([C@@H](C)O)NC(=O)[C@H](CCN)NC(=O)[C@H](CCN)NC1=O [PMBN, polymyxin B nonapeptide] (H-T[Dab][Dab][Dab][dF]L[Dab][Dab]T; lactam 3-C; N-terminus assumed) |  |  |  | MIC, single drug (P. aeruginosa ATCC 27853; ATCC 27853, 24 h): 2 µg/mL; MIC in combination PMBN:ROB (P. aeruginosa ATCC 27853; P. aeruginosa ATCC 27853, concentration of the labelled component): 0.75 µg/mL; MIC, single drug (P. mirabilis ATCC 43071): >32 µg/mL; MIC, single drug ([1]; 24 h): >32 µg/mL; MIC in combination PMBN:ROB ([1]; A. calcoaceticus human clinical isolate, concentration of the labelled component): 1.5 µg/mL; MIC, single drug (E. coli ATCC 25922; ATCC 25922, 24 h): >32 µg/mL; MIC in combination PMBN:ROB (E. coli ATCC 25922; E. coli ATCC 25922, concentration of the labelled component): 6 µg/mL; MIC in combination PMBN:ROB (A. baumannii ATCC 12457; A. baumannii ATCC 12457, concentration of the labelled component): 1 µg/mL; MIC, single drug (A. baumannii ATCC 12457; ATCC 12457, 24 h): >32 µg/mL; MIC, single drug (K. pneumoniae ATCC 13883; ATCC 13883, 24 h): >32 µg/mL; MIC in combination PMBN:ROB (K. pneumoniae ATCC 13883; K. pneumoniae ATCC 13883, concentration of the labelled component): 0.5 µg/mL; MIC, single drug (P. putida ATCC 17428; ATCC 17428, 24 h): 4 µg/mL; MIC in combination PMBN:ROB (P. putida ATCC 17428; P. putida ATCC 17428, concentration of the labelled component): 1:1 μg/ml; MIC in combination PMBN:ROB (A. baumannii ATCC 19606; A. baumannii ATCC 19606, concentration of the labelled component): 1 µg/mL; MIC, single drug (A. baumannii ATCC 19606; ATCC 19606, 24 h): >32 µg/mL; MIC, single drug (E. coli ATCC 11229; ATCC 11229, 24 h): >32 µg/mL; MIC in combination PMBN:ROB (E. coli ATCC 11229; E. coli ATCC 11229, concentration of the labelled component): 6 µg/mL; fold reduction of the MIC of PMBN [2]: 4- to 64 fold; IC50 [3]: > 32 µg/mL
32 | 64 | 0.25 to 64 | 2 | 2 | 1 to 64 | 2 | 0.5 | 0.5 (≈ 1.05 µM) | 8 | 32 | CNC(C)C1CCC(N)C(OC2C(N)CC(N)C(OC3OCC(C)(O)C(NC)C3O)C2O)O1 (stereo not drawn) [Gentamicin, gentamicin] | 8 | 8 | 8 to 16 | 
32 | 64 | 16 to 64 | 8 | 16 | 1 to 16 | 16 | 8 | 4 (≈ 7.41 µM) | 32 | 64 | CN[C@@H]1[C@@H](O[C@H]2O[C@H](CO)[C@@H](N)[C@H](O)[C@H]2O)OC2C[C@@H](N)[C@@H](O[C@H]3[C@H](O)[C@@H](O)[C@H](N)C[C@@H]3N)OC2[C@@H]1O (stereo partly drawn) [Apramycin, apramycin] | 64 | 128 | 4 to 128 | MIC range, single drug [7]: 16 to 64 µg/mL
 |  |  | 0.125 | 8 | 0.03 to 32 |  | 4 | 1 (≈ 2.86 µM) |  |  | CC1(C)S[C@@H]2[C@H](NC(=O)[C@H](N)c3ccccc3)C(=O)N2[C@H]1C(=O)O [Ampicillin, ampicillin] | 0.125 | 0.25 | 0.06 to 0.5 | MIC (S. pneumoniae ATCC 49619): 0.125 µg/mL (≈ 0.358 µM)
